Results: patent US20250263437A1, “POLYPEPTIDE FOR REPAIRING SKIN WOUND OR MUCOSAL INJURY, AND APPLICATION THEREOF” (Sichuan Gooddoctor Panxi Pharmaceutical Co., Ltd., priority 2021, published 2025)
“Also recorded” adds a separate entry of the source. Where no end group is shown, it is not given here.

Assays:
RSC96 cells = test: Proliferation of RSC96 cells (CCK-8); assay type: cell-based; conditions: 0.2, 0.4 and 0.8 ug/ml; 48 h; 0% serum
Experimental: Glial cells (RSC96 cells) were adjusted to a concentration of 1.0×10^5 to 5.0×10^5/mL for passaging and cultured at 37° C. and 5% CO2 for 24-36 h for biological activity detection. The cells were digested by trypsin, collected, prepared to a concentration of 5×10^4/mL with a serum-free medium, inoculated into a 96-well cell culture plate, with 100 μL per well, i.e., 5000 cells/well, and cultured overnight at 37° C. and 5% CO2. The polypeptide compound of the present invention was prepared to test concentrations (0.2 ug/ml, 0.4 ug/ml, and 0.8 ug/ml) with 0% serum culture medium as experimental groups, and an equal amount of 0% serum drug-free culture medium was added to the control group. They were added to 4 duplicate wells, and the resultants were incubated at 37° C. and 5% CO2 for 48 h. Detection of the proliferation of cells using CCK-8: the old culture medium was removed, and a serum-free medium containing 10% CCK-8 was added to each well. After incubation in an incubator for 2 h, the absorbance at 450 nm was measured by a microplate reader.

HaCaT cells = test: Proliferation of HaCaT cells (CCK8); assay type: cell-based, human; conditions: 0.2-0.8 μg/mL; 24 h, 48 h and 72 h; 1% serum
Experimental: Experimental method: Immortalized human keratinocytes (HaCaT cells) was adjusted to a concentration of 1.0×10^5 to 5.0×10^5/mL for passaging, and they were cultured at 37° C. and 5% CO2 for 24-36 h for biological activity detection. The cells were digested with 0.25% trypsin for 5 min, 1640 whole blood culture medium, the volume of which was not less than 1 time of the volume of the trypsin, was added to stop digestion, a cell suspension was collected, centrifuged at 1000 RPM for 3 min, the supernatant was discarded, 2 mL of 1640 whole blood culture medium was added to suspend the cells, 20 μL of the cell suspension was taken and stained with AOPI, the concentration of cells in the suspension was then detected by a cell counter, the suspension was prepared to a concentration of 5×10^4/mL with 1640 culture medium containing serum at a concentration of 10% and inoculated into a 96-well cell culture plate, with 100 μL per well, i.e., 5000 cells/well, and the plate was cultured at 37° C. and 5% CO2 overnight.
After 24 h, the original culture medium was discarded, and 100 μL of polypeptide compound solutions with different concentrations prepared with 1640 culture medium containing serum at a concentration of 1% were added, such that the final concentrations of the polypeptide compounds to be tested were 0.2, 0.4 and 0.8 ug/mL, respectively. In addition, an EGF control group was prepared by adding 100 μL of a recombinant human epidermal growth factor (EGF) solution prepared with 1640 culture medium containing serum at a concentration of 1%, with the final concentration being 100 ng/ml. In the model control group, an equal volume of 1640 culture medium containing serum at a concentration of 1% was added. After culturing at 37° C. and 5% CO2 for 24 h, 48 h and 72 h, the proliferation of the HaCaT cell line was detected by means of CCK8 kit.

[1] = system: ethanol-induced gastric ulcer model in mice; test: Anti-ulcer effect on ethanol-induced gastric ulcer model in mice; assay type: in vivo; conditions: single administration; ulcer inhibition rate of test compound / ulcer inhibition rate of Compound 1
Experimental: Experimental animals: Six-week old C57BL/6JGPt male mice, weighing about 20 g/mouse, were selected, with 10 mice in each group, from GemPharmatech (Chengdu) Co., Ltd., animal license number: SCXK (Chuan) 2020-034. After the experimental animals were divided into groups, they were dosed according to Table 5 one day before the experiment. Among the groups, the model group was given 200 μl of pure water, and the other dose groups were given 200 μl of drug solution. After that, all the animals were fasted for 24 h with free access to water. The next day, 1 h after administration, the mice in each group were given 9 μl/g of absolute ethanol by oral gavage for modeling. After 1 h, the animals were sacrificed by cervical dislocation, the gastric cardia was ligated, the pylorus was occluded, and the whole stomach was removed. 1 mL of 1% formaldehyde solution was injected into the gastric lumen via the glandular stomach, the cardia was ligated, and the stomach was taken out and immediately immersed in 1% formaldehyde solution. After soaking for 30 min, the stomach tissue was taken out and cut open along the greater curvature. The content of the stomach was rinsed off with normal saline, the injury of the gastric mucosa in the mice were observed and measured after being laid flat, and the ulcer index and ulcer inhibition rate were calculated; panoramic photos of the stomach were taken; and finally, the gastric tissue sample was immersed in formalin and fixed. Calculation method for ulcer index: If the length of cord-like injury was greater than 1 mm, the length thereof was measured, with 1 point per millimeter; if the width thereof was greater than 1 mm, the score thereof was doubled according to the number of millimeters of the width; and if the length was less than 1 mm, a score of 0.5 was given, and the scores were added up to obtain the ulcer index of the animal. Method of data statistics: the ulcer index was expressed as mean±standard deviation; the ulcer inhibition rate was calculated by using the median value and mean value of the ulcer index in each dosage group and simulation group; and the data were statistically analyzed by means of Excel, and the difference data of the gastric ulcer index were statistically analyzed by means of independent sample T test.

FGFR1 = FGFR1 (Homo sapiens, UniProt P11362); test: FGFR receptor binding assay: ultrafiltration/mass spectrometry affinity screening to FGFR1 protein target; conditions: ratio of lower-layer to upper-layer compound MS signal intensity; the greater the ratio, the stronger the affinity
Experimental: The affinity of the polypeptide compound prepared by the present invention to FGFR1 was tested by using a control FGFR1 allosteric inhibitor (product number SSR128129E from Sigma) as a positive compound control.
Screening for the affinity to FGFR1 was as follows: FGFR1 solutions with an appropriate concentration were taken, the positive compound SSR128129E (Sigma) at an appropriate concentration and sample solutions of the inventive polypeptide compounds, as freeze-dried powders, dissolved in protein buffers were then respectively added. After incubation at room temperature for 50 min, ultrafiltration and screening were carried out to obtain various treated solutions. An appropriate volume of acetonitrile was added to each treated solution to precipitate a protein, the solution was then centrifuged, and the supernatant was taken and analyzed by mass spectrometry.
Affinity screening conditions: One-dimensional liquid-phase conditions were: chromatographic column; PolyLC chromatographic column, mobile phase A: KH2PO4, NaCl, pH 7.5, mobile phase B: acetonitrile, column temperature: 8° C., flow rate: 1 mL/min, and injection volume: appropriate; and two-dimensional liquid-phase conditions were: chromatographic column: BONUS RRHD, mobile phase A: 0.1% formic acid aqueous solution, mobile phase B: 0.1% formic acid in acetonitrile, column temperature: 60° C., flow rate: 0.3 mL/min, and injection volume: 40 uL. Gradient elution was used, i.e., 98% A (0-1 min), 98-10% A (1-6 min), 10% A (6-7.5 min), 10-98% A (7.5-8 min), and 98% A (8-9.5 min). Mass spectrometry conditions: Agilent 6530 Q-Tof, ESI ion source, voltage 3.5 KV, mass-to-charge ratio scanning range m/z=200-3000, acquisition mode: positive ion scanning, ion source temperature: 350° C., solvent removal temperature: 300° C., and nitrogen flow rate: 8 L/min.

HMEC-1 cells = test: Proliferation of HMEC-1 cells (CCK-8); assay type: cell-based, Human; conditions: 0.05, 0.2 and 0.8 ug/mL; 48 h; 0% serum
Experimental: Human microvascular endothelial cells (HMEC-1 cells) were cultured in 10% serum culture medium at 37° C. and 5% CO2, the medium was replaced every 1-2 d, and the cell concentration was controlled to be 4×10^6 cells/mL for passage. Cells were collected, prepared to […] with complete culture medium, inoculated into a 96-well cell culture plate, with 100 μL per well, i.e., 5000 cells/well, and cultured at 37° C. and 5% CO2 until the cells adhered to the wall. The polypeptide compound of the present invention was prepared to test concentrations (0.05 ug/mL, 0.2 ug/mL, and 0.8 ug/mL) with 0% serum culture medium as experimental groups, a positive drug (300 ng/ml) was prepared in the same way and added as a positive control, and an equal amount of 0% serum drug-free culture medium was added to the control group. They were added to 5 duplicate wells, and the resultants were incubated at 37° C. and 5% CO2 for 48 h. Detection of the proliferation of cells using CCK-8: the old culture medium was removed, and a serum-free medium containing 10% CCK-8 was added to each well. After incubation in an incubator for 2 h, the absorbance at 450 nm was measured by a microplate reader.

Chain of FGFR1 (P11362 22-822, species assumed): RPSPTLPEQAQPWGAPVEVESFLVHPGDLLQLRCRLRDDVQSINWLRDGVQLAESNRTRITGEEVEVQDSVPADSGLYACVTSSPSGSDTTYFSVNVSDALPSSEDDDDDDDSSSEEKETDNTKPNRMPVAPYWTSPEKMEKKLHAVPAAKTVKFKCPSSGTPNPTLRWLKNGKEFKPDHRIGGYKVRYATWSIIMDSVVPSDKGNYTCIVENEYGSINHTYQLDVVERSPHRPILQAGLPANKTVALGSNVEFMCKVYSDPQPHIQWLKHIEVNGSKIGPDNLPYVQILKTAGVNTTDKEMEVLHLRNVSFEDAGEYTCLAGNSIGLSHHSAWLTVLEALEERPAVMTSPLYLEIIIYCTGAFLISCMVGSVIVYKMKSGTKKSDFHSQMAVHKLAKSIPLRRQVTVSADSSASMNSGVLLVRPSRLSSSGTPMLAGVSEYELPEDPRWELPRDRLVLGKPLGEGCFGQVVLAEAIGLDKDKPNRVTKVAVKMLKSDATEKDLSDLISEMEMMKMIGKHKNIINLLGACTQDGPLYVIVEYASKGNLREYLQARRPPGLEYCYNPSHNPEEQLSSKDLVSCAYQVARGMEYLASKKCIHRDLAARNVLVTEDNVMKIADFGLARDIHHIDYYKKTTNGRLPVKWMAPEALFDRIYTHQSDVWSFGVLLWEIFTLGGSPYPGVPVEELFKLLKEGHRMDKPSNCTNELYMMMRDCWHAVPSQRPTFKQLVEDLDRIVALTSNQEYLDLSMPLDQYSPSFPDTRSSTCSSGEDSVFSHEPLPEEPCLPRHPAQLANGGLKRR

| Cb/Ct range (FGFR1) | Sequence | effect on proliferation of RSC96 cells (RSC96 cells) | effect on proliferation of HaCaT cells (HaCaT cells) | Anti-ulcer activity (mean relative ulcer inhibition rate) [1] | effect on proliferation of HMEC-1 cells (HMEC-1 cells) |
| --- | --- | --- | --- | --- | --- |
| 1.0-3 | AARLADELRAE [Compound 65] | proliferation-promoting effect | proliferation-promoting effect | 1.29 |  |
| 1.0-3 | EINQLELIKQASI [Compound 64] | significant proliferation promoting effects | proliferation-promoting effect | 0.61 | proliferation-promoting effect |
| 1.0-3 | ETLQRKNKE [Compound 66] | significant proliferation promoting effects | proliferation-promoting effect | 0.52 |  |
| 1.0-3 | HCLAGLKKDLEDLE [Compound 63] | proliferation-promoting effect | proliferation-promoting effects | 1.99 |  |
| 1.0-3 | KFYSQSTASSSYAYPSHFGPAGFSGSHS [Compound 70] | inhibitory effect | proliferation-promoting effect | 0.39 |  |
| 1.0-3 | VDAAMVLLTR [Compound 72] |  | proliferation-promoting effect | 1.65 | significant proliferation promoting effects; also recorded: proliferation-promoting effect |
| 1.0-3 | VDAAVIEKIE [Compound 71] |  | proliferation-promoting effect | 0.77 | proliferation-promoting effect |
| 1.0-3 | VDAAVLMLRT [Compound 73] | proliferation-promoting effect | proliferation-promoting effect | 1.46 | proliferation-promoting effect |
